Where a name gives a salt, the structure may show the parent alone.
How the values were obtained:
[1] = tested on: chick embryo vitelline capillaries; assay: Chick embryo vitelline capillary regression assay; type: in vivo; set-up: key to vascular reactivity (capillary regression): +: Vascular reactivity; 0: No vascular reactivity; +/-: Equivocal reactivity; details: for Chick embryo diss. assay, Minimum Effective Concentration: Table II; for vascular reactivity (capillary regression): 60 min; for effect on chick embryo vessels / blood: in words
Experimental: Using the chick embryo vitelline capillaries assay, compounds were tested for their ability to induce capillary regression. Each compound was applied in 0.1 ml of 15% Ficol 400 and PBS onto the embryo, and vascular regression was assessed after 60 minutes.
The 3-day chick embryo consists of an embryonic disc from which numerous vessels emerge and return, forming a "figure 8"-shaped structure--the embryo in the center with vascular loops extending outward over both poles. […] Following a lag period of around 15 minutes, the constriction of continuity between capillary and secondary vessels, generally on the "avenous" side, was observed. Continued pulsatile blood flow progressed, resulting in a "swelling" of the blind tube, followed by a pinching off of the remaining connection and formation of an enclosed vascular sac resembling a "blood island." This process progressed until only the largest vessels remained intact.

Xenopus tadpole = details: stage 59-60, 10 μg/ml; in words

COC(=O)CC[C@@H](C)[C@H]1CC[C@H]2[C@@H]3C[C@@H](O)[C@H]4C[C@@H](NCCN)CC[C@]4(C)[C@H]3CC[C@]12C [Compound 432]
Chick embryo diss. assay, Minimum Effective Concentration [1]: > 1 µg | pharmacological response in tadpole (Xenopus tadpole): functionally similar to compound 1437

COC(=O)CC[C@@H](C)[C@H]1CC[C@H]2[C@@H]3CC[C@H]4C[C@H](NCCCNCCCCNCCCN)CC[C@]4(C)[C@H]3CC[C@]12C [Compound 458]
Chick embryo diss. assay, Minimum Effective Concentration [1]: > 1 µg | pharmacological response in tadpole (Xenopus tadpole): pharmacologic activity similar to that seen for FX 3

C[C@H](CCC(=O)O)[C@H]1CC[C@H]2[C@@H]3[C@H](O)C[C@H]4C[C@@H](NCCCNCCCCN)CC[C@]4(C)[C@H]3CC[C@]12C [Compound 381]
vascular reactivity (capillary regression) ([1]; 1 μg applied): 0 | Chick embryo diss. assay, Minimum Effective Concentration [1]: > 10 µg

COC(=O)CC[C@@H](C)[C@H]1CC[C@H]2[C@@H]3[C@H](O)C[C@@H]4C[C@H](NCCN)CC[C@]4(C)[C@H]3CC[C@]12C [Compound 410]
vascular reactivity (capillary regression) ([1]; 0.001 μg applied): 0 | vascular reactivity (capillary regression) ([1]; 0.01 μg applied): +/- | vascular reactivity (capillary regression) ([1]; 0.1 μg applied): +/- | vascular reactivity (capillary regression) ([1]; 1 μg applied): + | Chick embryo diss. assay, Minimum Effective Concentration [1]: 0.01 µg | pharmacological response in tadpole (Xenopus tadpole): functionally similar to compound 1437

C[C@H](CCC(=O)O)[C@H]1CC[C@H]2[C@@H]3CC[C@@H]4C[C@H](NCCCNCCCCNCCCN)CC[C@]4(C)[C@H]3C[C@H](O)[C@]12C [Compound 449]
Chick embryo diss. assay, Minimum Effective Concentration [1]: > 1 µg

C[C@H](CCC(=O)O)[C@H]1CC[C@H]2[C@@H]3C[C@@H](O)[C@H]4C[C@@H](NCCN)CC[C@]4(C)[C@H]3CC[C@]12C [Compound 433]
Chick embryo diss. assay, Minimum Effective Concentration [1]: 1 µg | pharmacological response in tadpole (Xenopus tadpole): functionally similar to compound 1437

CC(COS(=O)(=O)O)C(=O)CC[C@@H](C)[C@H]1CC[C@H]2[C@@H]3[C@H](O)C[C@H]4C[C@@H](NCCCNCCCCN)CC[C@]4(C)[C@H]3CC[C@]12C (single isomer, unassigned) [Compound 1360]
vascular reactivity (capillary regression) ([1]; 1 μg applied): 0 | Chick embryo diss. assay, Minimum Effective Concentration [1]: > 10 µg | effect on chick embryo vessels / blood [1]: Within 20 minutes, the blood circulating through the embryonic vessels exhibited a brighter red color | pharmacological response in tadpole (Xenopus tadpole): Swelling and lysis of certain erythrocytes occurred, resulting in accumulation of nuclei within certain small vessels of the tail. Subsequent tissue breakdown occurred in areas of tail surrounding these nuclear plugs.

CC(C)CCC[C@@H](C)[C@H]1CC[C@H]2[C@@H]3[C@H](O)C[C@H]4C[C@H](N)CC[C@]4(C)[C@H]3CC[C@]12C [Compound 1363]
pharmacological response in tadpole (Xenopus tadpole): pharmacologic activity similar to Fraction 1

COC(=O)CC[C@@H](C)[C@H]1CC[C@H]2[C@@H]3CC[C@H]4C[C@@H](NCCCNCCCCNCCCN)CC[C@]4(C)[C@H]3CC[C@]12C [Compound 459]
Chick embryo diss. assay, Minimum Effective Concentration [1]: > 1 µg | pharmacological response in tadpole (Xenopus tadpole): pharmacologic activity similar to that seen for FX 3

COC(=O)CC[C@@H](C)[C@H]1CC[C@H]2[C@@H]3C[C@@H](O)[C@H]4C[C@@H](NCCCNCCCCNCCCN)CC[C@]4(C)[C@H]3CC[C@]12C [Compound 466]
Chick embryo diss. assay, Minimum Effective Concentration [1]: 1 µg | pharmacological response in tadpole (Xenopus tadpole): pharmacologic activity similar to that seen for FX 3

CC(C)CCC[C@@H](C)[C@H]1CC[C@H]2[C@@H]3[C@H](O)C[C@H]4C[C@@H](N)CC[C@]4(C)[C@H]3CC[C@]12C [Compound 1364]
vascular reactivity (capillary regression) ([1]; 0.001 μg applied): 0 | vascular reactivity (capillary regression) ([1]; 0.01 μg applied): 0 | vascular reactivity (capillary regression) ([1]; 0.1 μg applied): 0 | vascular reactivity (capillary regression) ([1]; 1 μg applied): + | vascular reactivity (capillary regression) ([1]; 10 μg applied): +

C[C@H](CCCOS(=O)(=O)O)[C@H]1CC[C@H]2[C@@H]3CC[C@H]4C[C@@H](NCCCNCCCCN)CC[C@]4(C)[C@H]3CC[C@]12C [Compound 399, 3β-N-1-{N[3-(4-Aminobutyl)]-1,3-diaminopropane}-24-hydroxy-5α-cholane 24-potassium sulfate]
Chick embryo diss. assay, Minimum Effective Concentration [1]: > 10 µg

CC(C)CCC[C@@H](C)[C@H]1CC[C@H]2[C@@H]3[C@H](O)C[C@H]4C[C@@H](NCCCNCCCCN)CC[C@]4(C)[C@H]3CC[C@]12C [Compound 371]
vascular reactivity (capillary regression) ([1]; 0.001 μg applied): 0 | vascular reactivity (capillary regression) ([1]; 0.01 μg applied): 0 | vascular reactivity (capillary regression) ([1]; 0.1 μg applied): 0 | vascular reactivity (capillary regression) ([1]; 1 μg applied): +/- | vascular reactivity (capillary regression) ([1]; 10 μg applied): + | Chick embryo diss. assay, Minimum Effective Concentration [1]: 1 to 10 µg | pharmacological response in tadpole (Xenopus tadpole): effects like those produced by compound 1436

CC(C)CCC[C@@H](C)[C@H]1CC[C@H]2[C@@H]3CC[C@H]4C[C@H](NCCCN5CCCCN=C5N)CC[C@]4(C)[C@H]3CC[C@]12C [Compound 393]
Chick embryo diss. assay, Minimum Effective Concentration [1]: > 10 µg

COC(=O)CC[C@@H](C)[C@H]1CC[C@H]2[C@@H]3C[C@@H](O)[C@H]4C[C@H](NCCN)CC[C@]4(C)[C@H]3CC[C@]12C [Compound 431]
Chick embryo diss. assay, Minimum Effective Concentration [1]: > 1 µg | pharmacological response in tadpole (Xenopus tadpole): functionally similar to compound 1437

C[C@H](CCC(=O)O)[C@H]1CC[C@H]2[C@@H]3[C@H](O)C[C@@H]4C[C@H](NCCN)CC[C@]4(C)[C@H]3CC[C@]12C [Compound 414]
vascular reactivity (capillary regression) ([1]; 1 μg applied): 0 | Chick embryo diss. assay, Minimum Effective Concentration [1]: > 1 µg | pharmacological response in tadpole (Xenopus tadpole): pharmacologic activity similar to Fraction 1

COC(=O)CC[C@@H](C)[C@H]1CC[C@H]2[C@@H]3CC[C@@H]4C[C@H](NCCN)CC[C@]4(C)[C@H]3C[C@H](O)[C@]12C [Compound 416]
Chick embryo diss. assay, Minimum Effective Concentration [1]: > 1 µg | pharmacological response in tadpole (Xenopus tadpole): functionally similar to compound 1437

C[C@H](CCC(=O)O)[C@H]1CC[C@H]2[C@@H]3CC[C@H]4C[C@H](NCCCNCCCCN)CC[C@]4(C)[C@H]3CC[C@]12C [Compound 318]
vascular reactivity (capillary regression) ([1]; 1 μg applied): 0 | Chick embryo diss. assay, Minimum Effective Concentration [1]: > 10 µg

CC(C)CCC[C@@H](C)[C@H]1CC[C@H]2[C@@H]3CC[C@H]4C[C@H](NCCCNCCCCNCCCN)CC[C@]4(C)[C@H]3CC[C@]12C [Compound 354]
Chick embryo diss. assay, Minimum Effective Concentration [1]: > 10 µg

C[C@H](CCC(=O)O)[C@H]1CC[C@H]2[C@@H]3[C@H](O)C[C@H]4C[C@H](NCCCNCCCCN)CC[C@]4(C)[C@H]3CC[C@]12C [Compound 382]
vascular reactivity (capillary regression) ([1]; 0.001 μg applied): 0 | vascular reactivity (capillary regression) ([1]; 0.01 μg applied): 0 | vascular reactivity (capillary regression) ([1]; 0.1 μg applied): 0 | vascular reactivity (capillary regression) ([1]; 1 μg applied): + | vascular reactivity (capillary regression) ([1]; 10 μg applied): + | Chick embryo diss. assay, Minimum Effective Concentration [1]: 0.01 µg

COC(=O)CC[C@@H](C)[C@H]1CC[C@H]2[C@@H]3[C@H](O)C[C@@H]4C[C@@H](NCCCNCCCCNCCCN)CC[C@]4(C)[C@H]3CC[C@]12C [Compound 411]
vascular reactivity (capillary regression) ([1]; 1 μg applied): +/- | Chick embryo diss. assay, Minimum Effective Concentration [1]: > 1 µg

COC(=O)CC[C@@H](C)[C@H]1CC[C@H]2[C@@H]3[C@H](O)C[C@H]4C[C@H](NCCCNCCCCN)CC[C@]4(C)[C@H]3CC[C@]12C [Compound 394]
Chick embryo diss. assay, Minimum Effective Concentration [1]: > 10 µg

COC(=O)CC[C@@H](C)[C@H]1CC[C@H]2[C@@H]3[C@H](O)C[C@@H]4C[C@@H](NCCN)CC[C@]4(C)[C@H]3CC[C@]12C [Compound 409]
vascular reactivity (capillary regression) ([1]; 1 μg applied): 0 | Chick embryo diss. assay, Minimum Effective Concentration [1]: > 1 µg | pharmacological response in tadpole (Xenopus tadpole): functionally similar to compound 1437

C[C@H](CCC(=O)O)[C@H]1CC[C@H]2[C@@H]3CC[C@@H]4C[C@H](NCCN)CC[C@]4(C)[C@H]3C[C@H](O)[C@]12C [Compound 417]
Chick embryo diss. assay, Minimum Effective Concentration [1]: > 1 µg

COC(=O)CC[C@@H](C)[C@H]1CC[C@H]2[C@@H]3C[C@@H](O)[C@H]4C[C@H](NCCCNCCCCNCCCN)CC[C@]4(C)[C@H]3CC[C@]12C [Compound 465]
pharmacological response in tadpole (Xenopus tadpole): pharmacologic activity similar to that seen for FX 3

C[C@H](CCC(=O)O)[C@H]1CC[C@H]2[C@@H]3[C@H](O)C[C@H]4C[C@@H](NCCCNCCCCNCCCN)CC[C@]4(C)[C@H]3CC[C@]12C [Compound 397]
Chick embryo diss. assay, Minimum Effective Concentration [1]: 1 µg

C[C@H](CCC(=O)O)[C@H]1CC[C@H]2[C@@H]3[C@H](O)C[C@@H]4C[C@@H](NCCN)CC[C@]4(C)[C@H]3CC[C@]12C [Compound 415]
vascular reactivity (capillary regression) ([1]; 0.001 μg applied): 0 | vascular reactivity (capillary regression) ([1]; 0.01 μg applied): + | vascular reactivity (capillary regression) ([1]; 0.1 μg applied): + | vascular reactivity (capillary regression) ([1]; 1 μg applied): + | Chick embryo diss. assay, Minimum Effective Concentration [1]: > 1 µg | effect on chick embryo vessels / blood [1]: especially active

COC(=O)CC[C@@H](C)[C@H]1CC[C@H]2[C@@H]3[C@H](O)C[C@H]4C[C@@H](NCCCNCCCCNCCCN)CC[C@]4(C)[C@H]3CC[C@]12C [Compound 396]
vascular reactivity (capillary regression) ([1]; 0.001 μg applied): 0 | vascular reactivity (capillary regression) ([1]; 0.01 μg applied): 0 | vascular reactivity (capillary regression) ([1]; 0.1 μg applied): 0 | vascular reactivity (capillary regression) ([1]; 1 μg applied): + | Chick embryo diss. assay, Minimum Effective Concentration [1]: 10 µg

COC(=O)CC[C@@H](C)[C@H]1CC[C@H]2[C@@H]3CC[C@@H]4C[C@H](NCCCNCCCCNCCCN)CC[C@]4(C)[C@H]3C[C@H](O)[C@]12C [Compound 448]
Chick embryo diss. assay, Minimum Effective Concentration [1]: 1 µg

COC(=O)CC[C@@H](C)[C@H]1CC[C@H]2[C@@H]3[C@H](O)C[C@H]4C[C@H](NCCCNCCCCNCCCN)CC[C@]4(C)[C@H]3CC[C@]12C [Compound 395]
Chick embryo diss. assay, Minimum Effective Concentration [1]: > 10 µg

CC(C)CCC[C@@H](C)[C@H]1CC[C@H]2[C@@H]3CC[C@H]4C[C@@H](NCCCNCCCCN)CC[C@]4(C)[C@H]3CC[C@]12C [Compound 303]
vascular reactivity (capillary regression) ([1]; 1 μg applied): 0 | Chick embryo diss. assay, Minimum Effective Concentration [1]: > 10 µg
